Where a name gives a salt, the structure may show the parent alone. Read-outs that look alike come from different tables or passages of the source.

This note sets out measurements from US10004701B2, “Methods and compositions for treating infection” (UNIVERSITY OF ROCHESTER, priority 2012, dated 2018).

Holding throughout (experiment): AK assay 384-well format, Prestwick library screening
Test [1] deals with A. baumannii strain 98-37-09. The class given is cell-based, Acinetobacter baumannii. To be noted: 50 μM final drug concentration; for fold induction at 50 µM: Acinetobacter baumannii, 983709, 3 h.
Test [2] relates to S. aureus strain USA300-0114. The class given is cell-based, Staphylococcus aureus. Particulars: 50 μM final drug concentration; for fold induction at 50 µM: Staphylococcus aureus, USA300, 3 h.
The test system of test [3] is E. faecium. The class given is cell-based, Enterococcus faecium. Particulars: 50 μM final drug concentration; for fold induction at 50 µM: Enterococcus faecium, 3 h.
In test [4] the test system is E. coli. The class given is cell-based, Escherichia coli. Particulars: 50 μM final drug concentration; for fold induction at 50 µM: Escherichia coli, 3 h.
Test [5] deals with E. cloacae. The class given is cell-based, Enterobacter cloacae. Particulars: 50 μM final drug concentration; for fold induction at 50 µM: Enterobacter cloacae, 3 h.
Test [6] relates to P. aeruginosa. The class given is cell-based, Pseudomonas aeruginosa. Particulars: 50 μM final drug concentration; for fold induction at 50 µM: Pseudomonas aeruginosa, 3 h.
Test [7] deals with K. pneumoniae. The class given is cell-based, Klebsiella pneumoniae. To be noted: 50 μM final drug concentration; for fold induction at 50 µM: Klebsiella pneumoniae, 3 h.
Setting [8] is: cutoff for positive-scoring molecules 3-fold increase, read-out: AK-based Prestwick Library Screening Results, A. baumannii (fold increase in extracellular AK activity).
Setting [9] is: cutoff for positive-scoring molecules 3-fold increase, read-out: AK-based Prestwick Library Screening Results, S. aureus (fold increase in extracellular AK activity).
Setting [10] is: cutoff for positive-scoring molecules 3-fold increase, read-out: AK-based Prestwick Library Screening Results, E. faecium (fold increase in extracellular AK activity).
[11] abbreviates: cutoff for positive-scoring molecules 3-fold increase, read-out: AK-based Prestwick Library Screening Results, E. coli (fold increase in extracellular AK activity).
Setting [12] is: cutoff for positive-scoring molecules 3-fold increase, read-out: AK-based Prestwick Library Screening Results, E. cloacae (fold increase in extracellular AK activity).
Where [13] appears, read: cutoff for positive-scoring molecules 3-fold increase, read-out: AK-based Prestwick Library Screening Results, P. aeruginosa (fold increase in extracellular AK activity).
Setting [14] is: cutoff for positive-scoring molecules 3-fold increase, read-out: AK-based Prestwick Library Screening Results, K. pneumoniae (fold increase in extracellular AK activity).
The mark [15] stands for this setting: planktonic, cutoff for positive-scoring molecules 3-fold increase.
The mark [16] stands for this setting: cutoff for positive-scoring molecules 3-fold increase.

For the compound `CCn1cc(C(=O)O)c(=O)c2cnc(N3CCNCC3)nc21` [Pipemidic acid], the fold induction at 50 µM was 0.9 in test [1] (planktonic, […], read-out: AK-based Prestwick Library Screening Results, A. baumannii (fold increase in extracellular AK activity)); 0.7 in test [2] (planktonic, […], read-out: AK-based Prestwick Library Screening Results, S. aureus (fold increase in extracellular AK activity)); 1.1 in test [3] (planktonic, […], read-out: AK-based Prestwick Library Screening Results, E. faecium (fold increase in extracellular AK activity)); 14.7 in test [4] (planktonic, […], read-out: AK-based Prestwick Library Screening Results, E. coli (fold increase in extracellular AK activity)); 1 in test [5] (planktonic, […], read-out: AK-based Prestwick Library Screening Results, E. cloacae (fold increase in extracellular AK activity)); 0.9 in test [6] (planktonic, […], read-out: AK-based Prestwick Library Screening Results, P. aeruginosa (fold increase in extracellular AK activity)). Also, the fold induction at 50 µM in test [7] (planktonic, […], read-out: AK-based Prestwick Library Screening Results, K. pneumoniae (fold increase in extracellular AK activity)) was determined as 1.7.
As for `O=c1cc(-c2ccc(O)c(O)c2)oc2cc(O)cc(O)c12` [Luteolin], the fold induction at 50 µM came out at 0.3 in test [1] (setting [8]); 0.2 in test [2] (setting [9]); 0.5 in test [3] (setting [10]); 0.4 in test [4] (setting [11]); 1.6 in test [5] (setting [12]); 0.5 in test [6] (setting [13]). The fold induction at 50 µM in test [7] (setting [14]) was found to be 0.5.
As to `C[C@]1(OC(=O)/C=C/c2ccccc2)C[C@@H](O)[C@]2(O)C=CO[C@@H](O[C@@H]3O[C@H](CO)[C@@H](O)[C@H](O)[C@H]3O)[C@@H]21` [Harpagoside], the fold induction at 50 µM in test [1] (planktonic A. baumannii, positive cutoff 3-fold increase, read-out: AK-based Prestwick library screening result, A. baumannii (fold increase in extracellular AK activity)) worked out at 0.9; in test [2] (planktonic S. aureus, positive cutoff 3-fold increase, read-out: AK-based Prestwick library screening result, S. aureus (fold increase in extracellular AK activity)) it was 0.8; in test [3] (planktonic E. faecium, positive cutoff 3-fold increase, read-out: AK-based Prestwick library screening result, E. faecium (fold increase in extracellular AK activity)) it was 0.9; in test [4] (planktonic E. coli, positive cutoff 3-fold increase, read-out: AK-based Prestwick library screening result, E. coli (fold increase in extracellular AK activity)) it was 0.8; in test [5] (planktonic E. cloacae, positive cutoff 3-fold increase, read-out: AK-based Prestwick library screening result, E. cloacae (fold increase in extracellular AK activity)) it was 0.9; in test [6] (planktonic P. aeruginosa, positive cutoff 3-fold increase, read-out: AK-based Prestwick library screening result, P. aeruginosa (fold increase in extracellular AK activity)), 0.8. The fold induction at 50 µM in test [7] (planktonic K. pneumoniae, positive cutoff 3-fold increase, read-out: AK-based Prestwick library screening result, K. pneumoniae (fold increase in extracellular AK activity)) was 0.7.
With `O=C1NCCN1c1ncc([N+](=O)[O-])s1` [Niridazole], the fold induction at 50 µM in test [1] (planktonic, cutoff for positive 3-fold increase, read-out: AK-based Prestwick Library Screening Results, A. baumannii (fold increase in extracellular AK activity)) is 1.4; in test [2] (planktonic, cutoff for positive 3-fold increase, read-out: AK-based Prestwick Library Screening Results, S. aureus (fold increase in extracellular AK activity)), 1.8; in test [3] (planktonic, cutoff for positive 3-fold increase, read-out: AK-based Prestwick Library Screening Results, E. faecium (fold increase in extracellular AK activity)), 1; in test [4] (planktonic, cutoff for positive 3-fold increase, read-out: AK-based Prestwick Library Screening Results, E. coli (fold increase in extracellular AK activity)), 13.2; in test [5] (planktonic, cutoff for positive 3-fold increase, read-out: AK-based Prestwick Library Screening Results, E. cloacae (fold increase in extracellular AK activity)), 6.1; in test [6] (planktonic, cutoff for positive 3-fold increase, read-out: AK-based Prestwick Library Screening Results, P. aeruginosa (fold increase in extracellular AK activity)) it was 1.2. In addition, the fold induction at 50 µM in test [7] (planktonic, cutoff for positive 3-fold increase, read-out: AK-based Prestwick Library Screening Results, K. pneumoniae (fold increase in extracellular AK activity)) amounted to 6.
With `C=C1c2cccc(O)c2C(=O)C2=C(O)[C@]3(O)C(=O)C(C(N)=O)=C(O)[C@@H](N(C)C)[C@@H]3[C@@H](O)[C@H]12` [Methacycline hydrochloride], the fold induction at 50 µM in test [1] (setting [8]) was 4.2; in test [2] (setting [9]), 1.9; in test [3] (setting [10]), 0.9; in test [4] (setting [11]) it was 3.2; in test [5] (setting [12]), 0.4; in test [6] (setting [13]) it was 0.2. Moreover, the fold induction at 50 µM in test [7] (setting [14]) turned out to be 0.2.
For the compound `Nc1nc(=O)c2c([nH]1)NCC(CNc1ccc(C(=O)N[C@@H](CCC(=O)[O-])C(=O)[O-])cc1)N2C=O.[Ca+2]` (some centres unmarked) [Folinic acid calcium salt], in test [1] (setting [15]), the “AK-based Prestwick Library Screening Results, A. baumannii (fold increase in extracellular AK activity)” value is 0.7. In addition, the “AK-based Prestwick Library Screening Results, S. aureus (fold increase in extracellular AK activity)” value in test [2] (setting [15]) was determined as 0.7. The “AK-based Prestwick Library Screening Results, E. faecium (fold increase in extracellular AK activity)” value in test [3] (setting [15]) was 1.0. In test [4] (setting [15]), the “AK-based Prestwick Library Screening Results, E. coli (fold increase in extracellular AK activity)” value is 0.7. For the same compound, in test [5] (setting [15]), the “AK-based Prestwick Library Screening Results, E. cloacae (fold increase in extracellular AK activity)” value came out at 0.7. Moreover, the “AK-based Prestwick Library Screening Results, P. aeruginosa (fold increase in extracellular AK activity)” value in test [6] (setting [15]) was 0.6. Also, the “AK-based Prestwick Library Screening Results, K. pneumoniae (fold increase in extracellular AK activity)” value in test [7] (setting [15]) is 0.6.
With `C[C@]12CC[C@H]3[C@@H](CCC4=CC(=O)CC[C@@]43C)[C@@H]1CC[C@@H]2C(=O)CO` [Deoxycorticosterone], the “AK-based Prestwick Library Screening Results, A. baumannii (fold increase in extracellular AK activity)” value in test [1] (setting [16]) was determined as 1.3. The “AK-based Prestwick Library Screening Results, S. aureus (fold increase in extracellular AK activity)” value in test [2] (setting [16]) is on record as 1.6. In addition, the “AK-based Prestwick Library Screening Results, E. faecium (fold increase in extracellular AK activity)” value in test [3] (setting [16]) is listed as 1.2. Also, the “AK-based Prestwick Library Screening Results, E. coli (fold increase in extracellular AK activity)” value in test [4] (setting [16]) was found to be 1.2. Also, the “AK-based Prestwick Library Screening Results, E. cloacae (fold increase in extracellular AK activity)” value in test [5] (setting [16]) is recorded as 1.3. The “AK-based Prestwick Library Screening Results, P. aeruginosa (fold increase in extracellular AK activity)” value in test [6] (setting [16]) was 1.3. Further, the “AK-based Prestwick Library Screening Results, K. pneumoniae (fold increase in extracellular AK activity)” value in test [7] (setting [16]) is recorded as 1.2.
Consider `N=C(N)NC(=O)c1nc(Cl)c(N)nc1N` [Amiloride hydrochloride dihydrate], for which the fold induction at 50 µM in test [1] (384-well format, cutoff for positive-scoring molecules 3-fold increase, read-out: AK-based Prestwick Library Screening Results, A. baumannii (increase in extracellular AK activity)) turned out to be 0.4; in test [2] (384-well format, cutoff for positive-scoring molecules 3-fold increase, read-out: AK-based Prestwick Library Screening Results, S. aureus (increase in extracellular AK activity)), 0.4; in test [3] (384-well format, cutoff for positive-scoring molecules 3-fold increase, read-out: AK-based Prestwick Library Screening Results, E. faecium (increase in extracellular AK activity)), 0.8; in test [4] (384-well format, cutoff for positive-scoring molecules 3-fold increase, read-out: AK-based Prestwick Library Screening Results, E. coli (increase in extracellular AK activity)), 0.5; in test [5] (384-well format, cutoff for positive-scoring molecules 3-fold increase, read-out: AK-based Prestwick Library Screening Results, E. cloacae (increase in extracellular AK activity)), 0.4; in test [6] (384-well format, cutoff for positive-scoring molecules 3-fold increase, read-out: AK-based Prestwick Library Screening Results, P. aeruginosa (increase in extracellular AK activity)), 0.3. Besides, the fold induction at 50 µM in test [7] (384-well format, cutoff for positive-scoring molecules 3-fold increase, read-out: AK-based Prestwick Library Screening Results, K. pneumoniae (increase in extracellular AK activity)) came to 0.4.
